Assay results published in publication PMC5342555, “ATAD2 is an epigenetic reader of newly synthesized histone marks during DNA replication” (Oncotarget, 2016).
“Also recorded” adds a separate entry of the source.

Columns and labels:
[1] = test system: MCF7 cells; test: Cell growth, viable cells by AlamarBlue; type: cell-based; conditions: MCF7, 4 days after transfection, mean ± SD, n = 3
[2] = test system: HEK293 cells; test: Isolation of proteins on nascent DNA (iPOND) after cycloheximide; type: cell-based
Protocol: iPOND was performed as previously described. Briefly, exponentially growing 1 x 10^8 of HEK 293 cells were incubated with 10 μM EdU (5-ethynyl-2'-deoxyuridine) and fixed in 1 % formaldehyde for 20 min at RT after 20 min (nascent chromatin) or chased for 2 h in fresh medium before fixation (mature chromatin). Crosslinking was stopped by addition of 0.125 M glycine and cells were permeabilized in 0.25 % Triton-X-100 for 30 min at RT followed by Click reaction to couple biotin to EdU. Cells were incubated in Click reaction buffer (0.01 mM biotin azide, 10 mM sodium ascorbate, 2 mM CuSO4 in PBS) for 1-2 h at RT with constant mixing. Cells were lysed in lysis buffer (1 % SDS in 50 mM Tris pH 8.0) and chromatin was solubilized by sonication in BIORUPTOR (Diagenode) for 4 min with medium frequency and 0.5 intervals at 4 °C. Biotinylated chromatin fragments were purified on streptavidine-dynabeads (ThermoFisher) by overnight end-over-end rotation at 4 °C. After stringent washing including once with 1 M NaCl the bound chromatin was released and crosslinking was reversed by boiling the beads in 2X LDS buffer for 40 min at 100 °C. Samples were dissolved in NuPAGE Bis-Tris gel and Western blot was performed.

[3] = test system: endogenous ATAD2; test: Peptide pull down from MCF7 nuclear extract; type: binding; conditions: immobilized histone peptides, nuclear extract from MCF7 cells
Protocol: H4 peptides (1-25) conjugated with Biotin was immobilized on Streptavidin-coupled Dynabeads for 2 hours at 4 °C and incubated with nuclear extract from MCF7 cells. Nuclear extract was prepared by first isolating nucleus in hypotonic buffer (10 mM Tris-HCl pH 8.5, 10 mM NaCl, 0.5 mM TCEP and 0.1 % NP-40) and disrupting nuclear envelop in high salt buffer (20 mM Tris-HCl pH 8.5, 420 mM NaCl, 0.5 mM TCEP, 0.1 % Triton X-100, 25 % Glycerol) for 2 hours at 4 °C. Soluble nuclear extract was harvested by centrifugation at 20000 g for 20 min and diluted to 1:3 in buffer without NaCl in order to achieve physiological salt concentration, 140 mM. The nuclear extract was incubated with the immobilized peptides on the Streptavidin-Dynabeads overnight at 4 °C. Next day, the beads were washed three times with washing buffer (20 mM Tris-HCl pH 8.5, 140 mM NaCl, 0.5 mM TCEP, 0.1 % Triton X-100, 25 % Glycerol) and twice with high salt buffer. Bound proteins were recovered by boiling the beads in 1X sample buffer for 5 min. at 95 °C and analyzed by SDS-PAGE and Western Blotting. For direct binding experiments 1 μM of immobilized histone peptides on Streptavidin-Dynabeads were incubated with indicated amounts of ligands for 2 hours at 4 °C. After stringent washing as described above, bound proteins were analyzed in Western Blotting.

[4] = test system: GST-ATAD2-BD Mut; test: TR-FRET binding of biotinylated peptides to mutant bromodomain; design: species or system human; conditions: 10 nM GST-ATAD2-BD Mut
Protocol: (§1) TR-FRET measurements of GST-ATAD2 BD^981-1108 binding to the biotinylated synthetic peptides (Anaspec and Biosyntan) described in Supplementary Table S1 (SI Materials and Methods) were basically carried out as described recently for BRD4. For binding and competition experiments the concentration of GST-ATAD2 was 10 nM. Biotinylated peptides were tested in binding experiments at 100 nM and 1 μM, whereas the biotinylated H4K12ac tracer ([…]-K(Ac)-[…]-Biotin) was used at 50 nM in competition assays. […] All assays were performed in 50 mM HEPES pH 7.5, 100 mM NaCl, 50 mM KF, 0.25 mM CHAPS, 0.05 % BSA and 1 mM DTT and protein-peptide equilibrium complexes were detected with 10 nM of Anti-GST-XL665 MAb conjugate (Cisbio) and 2.5 nM of SA-Eu3+ Chelate (Perkin Elmer) as TR-FRET acceptor and donor molecules respectively. Raw fluorescence signals were acquired with a Pherastar FS microtiter plate reader (BMG) with 337 nm (excitation), 622 nm (donor emission) and 665 nm (acceptor emission). HTRF® ratio values were calculated as defined in the instrument software and normalized with low and high controls whenever appropriate. Competition experiments were analyzed with a four parameter logistic equation as defined in the GraphPad analysis software (http://www.graphpad.com/guides/prism/6/curve-fitting).

[5] = test system: GST-ATAD2-BD WT; test: TR-FRET binding of biotinylated peptides to WT bromodomain; design: species or system human; conditions: for interaction with WT BD (TR-FRET, Figure 5C): 10 nM GST-ATAD2-BD WT, peptides at 100 nM and 1 μM
Protocol: as §1

interaction with mutant BD (TR-FRET, Figure 5C) [4]	interaction with WT BD (TR-FRET, Figure 5C) [5]	Compound	further results
–	–	5’-AGAUCACCCUCCUUAAAUAUU-3’ [PLK1]	viable cells, fluorescence intensity normalized to control siRNA treated cells [1]: 38.5%
–	–	C[C@@H]1C[C@@H]([C@H](O)CC2CC(=O)NC(=O)C2)C(=O)[C@@H](C)C1 [cycloheximide]	recruitment of ATAD2 to nascent chromatin ([2]; HEK293, 250 μg/ml CHX […] before 10 μM EdU 20 min 37 °C, iPOND): abrogated; newly synthesized histone H4 acetylated at K12 on nascent chromatin ([2]; HEK293, CHX […], iPOND): lost; total level of ATAD2 ([2]; HEK293, CHX, Western blotting before crosslinking): unaffected
–	–	H4 (1-25): biotinylated unmodified histone H4 peptide, AnaSpec Cat. No. 65242-1	interaction with endogenous ATAD2 (pull down, Western blotting) [3]: not
not with mutant BD	interact	H4K5,12diac (1-25): biotinylated histone H4 peptide di-acetylated at K5 and K12	interaction with endogenous ATAD2 (pull down, Western blotting) [3]: interacts
not with mutant BD	interact	H4K5/8/12/16ac (1-25): biotinylated histone H4 peptide acetylated at K5,8,12,16, AnaSpec Cat. No. 65248-1	–
not with mutant BD	strong binding; also recorded: interact	H4K5ac (1-25): biotinylated histone H4 peptide acetylated at K5, AnaSpec Cat. No. 65229-1	–
not with mutant BD	strong binding; also recorded: interact	H4K12ac (1-25): biotinylated histone H4 peptide acetylated at K12, AnaSpec Cat. No. 65208-1	interaction with BD of ATAD2 (TR-FRET, Figure 5B) ([5]; 1 μM biotin-labelled peptide, 10 nM GST-ATAD2 BD, GST as control): strong interaction
